# pEC50: −log10 of the molar value. Where two headings read alike, the source gives them in different places.
# Key:
# [1] = molecular target: human CB2 receptors (Homo sapiens (Human), UniProt P34972); test: functional cAMP assay, CHO cells expressing human CB2; assay type: cell-based; settings: Human CB2 EC50 (uM)
# Method: (§1) CHO cells expressing human CB1 or CB2 receptors are seeded 17-24 hours prior to the experiment 50.000 cells per well in a black 96 well plate with flat clear bottom (Corning Costar #3904) in DMEM (Invitrogen No. 31331), 1×HT supplement, with 10% fetal calf serum and incubated at 5% CO2 and 37° C. in a humidified incubator. The growth medium was exchanged with Krebs Ringer Bicarbonate buffer with 1 mM IBMX and incubated at 30° C. for 30 min. Compounds were added to a final assay volume of 100 μl and incubated for 30 min at 30° C. Using the cAMP-Nano-TRF detection kit the assay (Roche Diagnostics) was stopped by the addition of 50 μl lysis reagent (Tris, NaCl, 1.5% Triton X100, 2.5% NP40, 10% NaN3) and 50 μl detection solutions (20 μM mAb Alexa700-cAMP 1:1, and 48 μM Ruthenium-2-AHA-cAMP) and shaken for 2 h at room temperature. The time-resolved energy transfer is measured by a TRF reader (Evotec Technologies GmbH), equipped with a ND:YAG laser as excitation source. The plate is measured twice with the excitation at 355 nm and at the emission with a delay of 100 ns and a gate of 100 ns, total exposure time 10 s at 730 (bandwidth 30 nm) or 645 nm (bandwidth 75 nm), respectively. The FRET signal is calculated as follows: FRET=T730-Alexa730-P(T645-B645) with P=Ru730-B730/Ru645-B645, where T730 is the test well measured at 730 nM, T645 is the test well measured at 645 nm, B730 and B645 are the buffer controls at 730 nm and 645 nm, respectively. cAMP content is determined from the function of a standard curve spanning from 10 μM to 0.13 nM cAMP.
# (§2) EC50 values were determined using Activity Base analysis (ID Business Solution, Limited). The EC50 values for a wide range of cannabinoid agonists generated from this assay were in agreement with the values published in the scientific literature.
# [2] = molecular target: human CB1 receptors (Homo sapiens (Human), UniProt P21554); test: functional cAMP assay, CHO cells expressing human CB1; assay type: cell-based; settings: functional cAMP assay, CHO cells expressing human CB1; for pEC50: read-out: Human CB1 EC50; for EC50: Human CB1 EC50 (uM)
# Sequence of human CB1 receptors (P21554 whole entry): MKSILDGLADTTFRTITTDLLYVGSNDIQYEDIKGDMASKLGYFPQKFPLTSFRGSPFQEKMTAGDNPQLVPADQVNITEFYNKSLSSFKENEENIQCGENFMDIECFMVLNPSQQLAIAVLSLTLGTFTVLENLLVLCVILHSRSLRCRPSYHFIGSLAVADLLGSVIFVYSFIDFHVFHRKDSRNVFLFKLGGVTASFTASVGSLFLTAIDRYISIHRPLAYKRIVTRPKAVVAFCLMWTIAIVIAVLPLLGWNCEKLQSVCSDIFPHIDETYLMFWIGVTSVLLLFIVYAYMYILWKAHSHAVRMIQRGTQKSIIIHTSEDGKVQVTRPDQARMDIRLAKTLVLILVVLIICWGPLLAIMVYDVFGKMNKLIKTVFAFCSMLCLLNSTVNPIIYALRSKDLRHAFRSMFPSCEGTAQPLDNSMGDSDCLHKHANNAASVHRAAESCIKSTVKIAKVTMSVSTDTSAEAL
# Method: as §1, §2
# Sequence of human CB2 receptors (P34972 whole entry): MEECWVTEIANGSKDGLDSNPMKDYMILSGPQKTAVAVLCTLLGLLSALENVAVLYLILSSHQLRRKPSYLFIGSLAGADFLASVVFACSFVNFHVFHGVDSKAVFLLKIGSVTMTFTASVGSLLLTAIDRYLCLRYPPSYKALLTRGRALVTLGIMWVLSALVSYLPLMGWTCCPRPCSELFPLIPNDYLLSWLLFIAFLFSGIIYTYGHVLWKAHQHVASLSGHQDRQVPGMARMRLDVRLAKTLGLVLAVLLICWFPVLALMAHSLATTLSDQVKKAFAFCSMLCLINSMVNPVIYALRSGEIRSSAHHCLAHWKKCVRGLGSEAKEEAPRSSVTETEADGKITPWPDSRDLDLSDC
SMILES,EC50 [1] [µM],pEC50 [2],EC50 [2] [µM]
"Cc1nc(C(C)(CC2CC2)NC(=O)c2cc(OCC(F)F)c(C3CC3)cn2)no1 (single isomer, unassigned) [Example 155, 5-cyclopropyl-N-[1-cyclopropyl-2-(5-methyl-1,2,4-oxadiazol-3-yl)propan-2-yl]-4-(2,2-difluoroethoxy)pyridine-2-carboxamide]",0.0058,< 5.00,–
"Cc1nc(C(C)(CC2CC2)NC(=O)c2cc(OCCF)c(C3CC3)cn2)no1 (single isomer, unassigned) [Example 156, 5-cyclopropyl-N-[1-cyclopropyl-2-(5-methyl-1,2,4-oxadiazol-3-yl)propan-2-yl]-4-(2-fluoroethoxy)pyridine-2-carboxamide]",0.0047,–,> 10
"Cc1nc(C(C)(CC2CC2)NC(=O)c2cc(OCCF)c(C3CC3)cn2)no1 (single isomer, unassigned) [Example 157, 5-cyclopropyl-N-[1-cyclopropyl-2-(5-methyl-1,2,4-oxadiazol-3-yl)propan-2-yl]-4-(2-fluoroethoxy)pyridine-2-carboxamide]",0.0036,< 5.00,–
"Cc1nc(C(C)(NC(=O)c2cc(OCC(F)(F)F)c(C3(F)COC3)cn2)C2CC2)no1 (single isomer, unassigned) [Example 166, N-[1-cyclopropyl-1-(5-methyl-1,2,4-oxadiazol-3-yl)ethyl]-5-(3-fluorooxetan-3-yl)-4-(2,2,2-trifluoroethoxy)pyridine-2-carboxamide]",0.31,–,> 10
"Cc1nc(C(C)(NC(=O)c2cc(OCC(F)(F)F)c(C3(F)COC3)cn2)C2CC2)no1 (single isomer, unassigned) [Example 167, N-[1-cyclopropyl-1-(5-methyl-1,2,4-oxadiazol-3-yl)ethyl]-5-(3-fluorooxetan-3-yl)-4-(2,2,2-trifluoroethoxy)pyridine-2-carboxamide]",0.0281,< 5.00,–
"Cc1nnc(C(NC(=O)c2cc(OCC(F)(F)F)c(C3CC3)cn2)C(C)(C)C)o1 (single isomer, unassigned) [Example 178, 5-cyclopropyl-N-[2,2-dimethyl-1-(5-methyl-1,3,4-oxadiazol-2-yl)propyl]-4-(2,2,2-trifluoroethoxy)pyridine-2-carboxamide]",0.0105,–,> 10
"Cc1nnc(C(NC(=O)c2cc(OCC(F)(F)F)c(C3CC3)cn2)C(C)(C)C)o1 (single isomer, unassigned) [Example 179, 5-cyclopropyl-N-[2,2-dimethyl-1-(5-methyl-1,3,4-oxadiazol-2-yl)propyl]-4-(2,2,2-trifluoroethoxy)pyridine-2-carboxamide]",0.0351,< 5.00,–
"Cc1nnc(C(C)(CC2CC2)NC(=O)c2cc(OCC(F)(F)F)c(C3CC3)cn2)o1 (single isomer, unassigned) [Example 184, 5-cyclopropyl-N-[1-cyclopropyl-2-(5-methyl-1,3,4-oxadiazol-2-yl)propan-2-yl]-4-(2,2,2-trifluoroethoxy)pyridine-2-carboxamide]",0.0856,–,> 10
"Cc1nnc(C(C)(CC2CC2)NC(=O)c2cc(OCC(F)(F)F)c(C3CC3)cn2)o1 (single isomer, unassigned) [Example 185, 5-cyclopropyl-N-[1-cyclopropyl-2-(5-methyl-1,3,4-oxadiazol-2-yl)propan-2-yl]-4-(2,2,2-trifluoroethoxy)pyridine-2-carboxamide]",0.0302,< 5.00,–
"CNC(=O)C(C)(NC(=O)c1cc(OCC(F)(F)F)c(C2CC2)cn1)c1noc(C)n1 (single isomer, unassigned) [Example 187, 5-cyclopropyl-N-[1-(methylamino)-2-(5-methyl-1,2,4-oxadiazol-3-yl)-1-oxopropan-2-yl]-4-(2,2,2-trifluoroethoxy)pyridine-2-carboxamide]",0.416,–,> 10
"CNC(=O)C(C)(NC(=O)c1cc(OCC(F)(F)F)c(C2CC2)cn1)c1noc(C)n1 (single isomer, unassigned) [Example 188, 5-cyclopropyl-N-[1-(methylamino)-2-(5-methyl-1,2,4-oxadiazol-3-yl)-1-oxopropan-2-yl]-4-(2,2,2-trifluoroethoxy)pyridine-2-carboxamide]",0.0206,< 5.00,–
"Cn1nnnc1C(NC(=O)c1cc(OCC(F)(F)F)c(C2CC2)cn1)C(C)(C)C (single isomer, unassigned) [Example 205, 5-cyclopropyl-N-[2,2-dimethyl-1-(1-methyltetrazol-5-yl)propyl]-4-(2,2,2-trifluoroethoxy)pyridine-2-carboxamide]",0.108,–,> 10
"Cn1nnnc1C(NC(=O)c1cc(OCC(F)(F)F)c(C2CC2)cn1)C(C)(C)C (single isomer, unassigned) [Example 206, 5-cyclopropyl-N-[2,2-dimethyl-1-(1-methyltetrazol-5-yl)propyl]-4-(2,2,2-trifluoroethoxy)pyridine-2-carboxamide]",0.0393,< 5.00,–
"CC(CC1CC1)(NC(=O)c1cc(OCC(F)(F)F)c(C2CC2)cn1)c1noc(N)n1 (single isomer, unassigned) [Example 207, N-[2-(5-amino-1,2,4-oxadiazol-3-yl)-1-cyclopropylpropan-2-yl]-5-cyclopropyl-4-(2,2,2-trifluoroethoxy)pyridine-2-carboxamide]",0.0083,–,> 10
"CC(CC1CC1)(NC(=O)c1cc(OCC(F)(F)F)c(C2CC2)cn1)c1noc(N)n1 (single isomer, unassigned) [Example 208, N-[2-(5-amino-1,2,4-oxadiazol-3-yl)-1-cyclopropylpropan-2-yl]-5-cyclopropyl-4-(2,2,2-trifluoroethoxy)pyridine-2-carboxamide]",0.0092,< 5.00,–
"Cn1nnc(C(NC(=O)c2cc(OCC(F)(F)F)c(C3CC3)cn2)C(C)(C)C)n1 (single isomer, unassigned) [Example 209, 5-cyclopropyl-N-[2,2-dimethyl-1-(2-methyltetrazol-5-yl)propyl]-4-(2,2,2-trifluoroethoxy)pyridine-2-carboxamide]",0.0048,–,> 10
"Cn1nnc(C(NC(=O)c2cc(OCC(F)(F)F)c(C3CC3)cn2)C(C)(C)C)n1 (single isomer, unassigned) [Example 210, 5-cyclopropyl-N-[2,2-dimethyl-1-(2-methyltetrazol-5-yl)propyl]-4-(2,2,2-trifluoroethoxy)pyridine-2-carboxamide]",0.0042,< 5.00,–
"Cc1nc(C(NC(=O)c2cc(OCC(F)(F)F)c(C3CC3)cn2)C(C)(C)C)no1 (single isomer, unassigned) [Example 211, 5-cyclopropyl-N-[2,2-dimethyl-1-(5-methyl-1,2,4-oxadiazol-3-yl)propyl]-4-(2,2,2-trifluoroethoxy)pyridine-2-carboxamide]",0.0048,–,> 10
"Cc1nc(C(NC(=O)c2cc(OCC(F)(F)F)c(C3CC3)cn2)C(C)(C)C)no1 (single isomer, unassigned) [Example 212, 5-cyclopropyl-N-[2,2-dimethyl-1-(5-methyl-1,2,4-oxadiazol-3-yl)propyl]-4-(2,2,2-trifluoroethoxy)pyridine-2-carboxamide]",0.005,< 5.00,–

# — patent US9409866B2, “Pyridine-2-amides useful as CB2 agonists” (Hoffmann-La Roche Inc., priority 2012, dated 2016)
